Numbers after ± are expanded uncertainties.
Legend:
[1] = 101 kPa, Liquid, Vibrating tube method
[2] = refractive index (Na D-line) (dimensionless); details: 101.33 kPa, Liquid, Standard Abbe refractometry
[3] = xn = mol fraction of the nth substance listed; details: 101 kPa, Liquid, Vibrating tube method, x2 = 0
[4] = refractive index (Na D-line) (dimensionless); xn = mol fraction of the nth substance listed; details: 101 kPa, Liquid, Standard Abbe refractometry, x2 = 0

Row | SMILES | mass density ([1]; 288.15 K) [kg/m3] | mass density ([1]; 293.15 K) [kg/m3] | mass density ([1]; 298.15 K) [kg/m3] | mass density ([1]; 303.15 K) [kg/m3] | mass density ([3]; 288.15 K) [kg/m3] | mass density ([3]; 293.15 K) [kg/m3] | mass density ([3]; 298.15 K) [kg/m3] | mass density ([3]; 303.15 K) [kg/m3] | mass density ([3]; 308.15 K) [kg/m3] | mass density ([3]; 313.15 K) [kg/m3] | mass density ([3]; 318.15 K) [kg/m3] | mass density ([3]; 323.15 K) [kg/m3] | refractive index ([4]; 288.15 K) | refractive index ([4]; 293.15 K) | refractive index ([4]; 298.15 K) | refractive index ([4]; 303.15 K) | refractive index ([4]; 308.15 K) | refractive index ([4]; 313.15 K) | refractive index ([4]; 318.15 K) | refractive index ([4]; 323.15 K) | further results
1 | COC(=O)c1ccccc1C(=O)OC [dimethyl 1,2-benzenedicarboxylate] | 1196.26 ± 0.39 | 1191.59 ± 0.39 | 1186.93 ± 0.39 | 1182.28 ± 0.38 | – | – | – | – | – | – | – | – | – | – | – | – | – | – | – | – | mass density ([1]; 308.15 K): 1177.62 ± 0.38 kg/m3; mass density ([1]; 313.15 K): 1172.97 ± 0.37 kg/m3; mass density ([1]; 318.15 K): 1168.32 ± 0.37 kg/m3; mass density ([1]; 323.15 K): 1163.67 ± 0.37 kg/m3; refractive index ([2]; 288.15 K): 1.51779 ± 0.0004; refractive index ([2]; 293.15 K): 1.51565 ± 0.0004; refractive index ([2]; 298.15 K): 1.51354 ± 0.0004; refractive index ([2]; 303.15 K): 1.51146 ± 0.0004; refractive index ([2]; 308.15 K): 1.50943 ± 0.0004; refractive index ([2]; 313.15 K): 1.50736 ± 0.0004; refractive index ([2]; 318.15 K): 1.50524 ± 0.0004; refractive index ([2]; 323.15 K): 1.5032 ± 0.0004
2 | CCCCO [butan-1-ol] + COC(=O)c1ccccc1C(=O)OC | – | – | – | – | 813.373 ± 0.14 | 809.573 ± 0.14 | 805.762 ± 0.15 | 801.923 ± 0.15 | 798.053 ± 0.15 | 794.147 ± 0.15 | 790.231 ± 0.15 | 786.238 ± 0.15 | 1.40135 ± 0.00036 | 1.39932 ± 0.00036 | 1.3973 ± 0.00036 | 1.39523 ± 0.00036 | 1.39318 ± 0.00036 | 1.3911 ± 0.00036 | 1.38901 ± 0.00036 | 1.38688 ± 0.00036 | –
3 | CCC(C)O (stereo unspecified) [butan-2-ol] + COC(=O)c1ccccc1C(=O)OC | – | – | – | – | 810.689 ± 0.24 | 806.646 ± 0.24 | 802.528 ± 0.24 | 798.326 ± 0.24 | 794.03 ± 0.24 | 789.632 ± 0.24 | 785.117 ± 0.24 | 780.515 ± 0.24 | 1.39951 ± 0.0004 | 1.39736 ± 0.0004 | 1.39515 ± 0.0004 | 1.39293 ± 0.0004 | 1.39064 ± 0.0004 | 1.38832 ± 0.0004 | 1.38596 ± 0.0004 | 1.38352 ± 0.0004 | –
4 | COC(=O)CCCCC(=O)OC [dimethyl 1,6-hexanedioate] | 1066.79 ± 0.29 | 1061.93 ± 0.28 | 1057.06 ± 0.28 | 1052.18 ± 0.28 | – | – | – | – | – | – | – | – | – | – | – | – | – | – | – | – | mass density ([1]; 308.15 K): 1047.31 ± 0.27 kg/m3; mass density ([1]; 313.15 K): 1042.43 ± 0.27 kg/m3; mass density ([1]; 318.15 K): 1037.54 ± 0.27 kg/m3; mass density ([1]; 323.15 K): 1032.64 ± 0.26 kg/m3; refractive index ([2]; 288.15 K): 1.4305 ± 0.0004; refractive index ([2]; 293.15 K): 1.42842 ± 0.0004; refractive index ([2]; 298.15 K): 1.42636 ± 0.0004; refractive index ([2]; 303.15 K): 1.42429 ± 0.0004; refractive index ([2]; 308.15 K): 1.42222 ± 0.0004; refractive index ([2]; 313.15 K): 1.42017 ± 0.0004; refractive index ([2]; 318.15 K): 1.41819 ± 0.0004; refractive index ([2]; 323.15 K): 1.41614 ± 0.0004
5 | CCCCO [butan-1-ol] | 813.373 ± 0.14 | 809.573 ± 0.14 | 805.762 ± 0.15 | 801.923 ± 0.15 | – | – | – | – | – | – | – | – | – | – | – | – | – | – | – | – | mass density ([1]; 308.15 K): 798.053 ± 0.15 kg/m3; mass density ([1]; 313.15 K): 794.147 ± 0.15 kg/m3; mass density ([1]; 318.15 K): 790.231 ± 0.15 kg/m3; mass density ([1]; 323.15 K): 786.238 ± 0.15 kg/m3; refractive index ([2]; 288.15 K): 1.40135 ± 0.00036; refractive index ([2]; 293.15 K): 1.39932 ± 0.00036; refractive index ([2]; 298.15 K): 1.3973 ± 0.00036; refractive index ([2]; 303.15 K): 1.39523 ± 0.00036; refractive index ([2]; 308.15 K): 1.39318 ± 0.00036; refractive index ([2]; 313.15 K): 1.3911 ± 0.00036; refractive index ([2]; 318.15 K): 1.38901 ± 0.00036; refractive index ([2]; 323.15 K): 1.38688 ± 0.00036
6 | CCC(C)O (stereo unspecified) [butan-2-ol] | 810.689 ± 0.24 | 806.646 ± 0.24 | 802.528 ± 0.24 | 798.326 ± 0.24 | – | – | – | – | – | – | – | – | – | – | – | – | – | – | – | – | mass density ([1]; 308.15 K): 794.03 ± 0.24 kg/m3; mass density ([1]; 313.15 K): 789.632 ± 0.24 kg/m3; mass density ([1]; 318.15 K): 785.117 ± 0.24 kg/m3; mass density ([1]; 323.15 K): 780.515 ± 0.24 kg/m3; refractive index ([2]; 288.15 K): 1.39951 ± 0.0004; refractive index ([2]; 293.15 K): 1.39736 ± 0.0004; refractive index ([2]; 298.15 K): 1.39515 ± 0.0004; refractive index ([2]; 303.15 K): 1.39293 ± 0.0004; refractive index ([2]; 308.15 K): 1.39064 ± 0.0004; refractive index ([2]; 313.15 K): 1.38832 ± 0.0004; refractive index ([2]; 318.15 K): 1.38596 ± 0.0004; refractive index ([2]; 323.15 K): 1.38352 ± 0.0004
7 | CCC(C)=O [butanone] + COC(=O)CCCCC(=O)OC | – | – | – | – | 810.133 ± 0.15 | 804.926 ± 0.15 | 799.695 ± 0.15 | 794.435 ± 0.16 | 789.142 ± 0.16 | 783.814 ± 0.16 | 778.451 ± 0.16 | 773.047 ± 0.16 | 1.38153 ± 0.00036 | 1.37892 ± 0.00036 | 1.37631 ± 0.00036 | 1.37366 ± 0.00036 | 1.37102 ± 0.00036 | 1.36834 ± 0.00036 | 1.36565 ± 0.00036 | 1.36294 ± 0.00036 | –
8 | CCCCO [butan-1-ol] + COC(=O)CCCCC(=O)OC | – | – | – | – | 813.373 ± 0.14 | 809.573 ± 0.14 | 805.762 ± 0.15 | 801.923 ± 0.15 | 798.053 ± 0.15 | 794.147 ± 0.15 | 790.231 ± 0.15 | 786.238 ± 0.15 | 1.40135 ± 0.00036 | 1.39932 ± 0.00036 | 1.3973 ± 0.00036 | 1.39523 ± 0.00036 | 1.39318 ± 0.00036 | 1.3911 ± 0.00036 | 1.38901 ± 0.00036 | 1.38688 ± 0.00036 | –
9 | CCC(C)=O [butanone] + COC(=O)c1ccccc1C(=O)OC | – | – | – | – | 810.133 ± 0.15 | 804.926 ± 0.15 | 799.695 ± 0.15 | 794.435 ± 0.16 | 789.142 ± 0.16 | 783.814 ± 0.15 | 778.451 ± 0.15 | 773.047 ± 0.16 | 1.38153 ± 0.00036 | 1.37892 ± 0.00036 | 1.37631 ± 0.00036 | 1.37366 ± 0.00036 | 1.37102 ± 0.00036 | 1.36834 ± 0.00036 | 1.36565 ± 0.00036 | 1.36294 ± 0.00036 | –
10 | CCC(C)=O [butanone] | 810.133 ± 0.15 | 804.926 ± 0.15 | 799.695 ± 0.15 | 794.435 ± 0.16 | – | – | – | – | – | – | – | – | – | – | – | – | – | – | – | – | mass density ([1]; 308.15 K): 789.142 ± 0.16 kg/m3; mass density ([1]; 313.15 K): 783.814 ± 0.15 kg/m3; mass density ([1]; 318.15 K): 778.451 ± 0.15 kg/m3; mass density ([1]; 323.15 K): 773.047 ± 0.16 kg/m3; refractive index ([2]; 288.15 K): 1.38153 ± 0.00036; refractive index ([2]; 293.15 K): 1.37892 ± 0.00036; refractive index ([2]; 298.15 K): 1.37631 ± 0.00036; refractive index ([2]; 303.15 K): 1.37366 ± 0.00036; refractive index ([2]; 308.15 K): 1.37102 ± 0.00036; refractive index ([2]; 313.15 K): 1.36834 ± 0.00036; refractive index ([2]; 318.15 K): 1.36565 ± 0.00036; refractive index ([2]; 323.15 K): 1.36294 ± 0.00036
11 | CCC(C)O (stereo unspecified) [butan-2-ol] + COC(=O)CCCCC(=O)OC | – | – | – | – | 810.689 ± 0.24 | 806.646 ± 0.24 | 802.528 ± 0.24 | 798.326 ± 0.24 | 794.03 ± 0.24 | 789.632 ± 0.24 | 785.117 ± 0.24 | 780.515 ± 0.24 | 1.39951 ± 0.0004 | 1.39736 ± 0.0004 | 1.39515 ± 0.0004 | 1.39293 ± 0.0004 | 1.39064 ± 0.0004 | 1.38832 ± 0.0004 | 1.38596 ± 0.0004 | 1.38352 ± 0.0004 | –
